From patent publication US5225420A, “Use of tetrahydrothienopyridine derivatives as angiogenesis inhibitors” (Elf-Sanofi, priority 1991, dated 1993)
Where two headings read alike, the source gives them in different places.

Legend:
[1] = tested on: angiogenic response induced by fibrin gels; conditions: rat
Method: (§1) Perforated Plexiglas chambers containing a fibrin gel, obtained by polymerisation of rat fibrinogen in the presence of thrombin, are implanted subcutaneously in rats.
The test products, suspended in absolute alcohol and 5% gum arabic (10 ml/kg), are administered orally to the rats at doses of 5 and 25 mg/kg/day for the compounds of Examples 3 and 4, for 5 days before implantation and up to the time of removal of the chambers. After 14 days, a granulation outgrowth is formed, and the chambers are removed in order to observe the height of the granulation outgrowth anchored in the matrix and the quantity of newly-formed vessels which have appeared.
(§2) The inhibition of the angiogenic response was evaluated by:
(§3) (i) the height and diameter of the granulation outgrowths,
(§4) (ii) the number of newly-formed vessels per outgrowth and their localisation,
(§5) (iii) the quality of the granulation tissue.

platelet aggregation = conditions: described in EP-A-0 281,459; cited from earlier work
[2] = tested on: bovine cerebral cortex capillary endothelial cells; test: Inhibition of rb-FGF-stimulated capillary endothelial cell proliferation (in vitro test); assay type: cell-based; conditions: 1 ng/ml rb-FGF, cell counting 5 days after addition of test product, read-out: IC50 (50% inhibition of cell proliferation)
Method: A nutrient medium (Dulbecco's modified Eagle medium-DMEM), supplemented with fetal calf serum (concentration: 5% V/V) and containing glutamine (4 mM), penicillin (100 U/ml) and streptomycin sulphate (100 μg/ml), is introduced into 1-ml wells and innoculated with bovine cerebral cortex capillary endothelial cells (20×10^3 cells/ml), isolated and cultured as described by D. Gospodarowicz et al. in J. Cell. Physiol. 127, p. 121-136 (1986).
As soon as cell adhesion has taken place, 1 ng/ml of recombinant bovine basic fibroblast growth factor (rb-FGF), marketed by Amersham, a known factor for the stimulation of angiogenesis in vivo, is added, followed by the test solutions.
Cell counting is performed 5 days after the addition of 20 μl of a solution of the test products in dimethyl sulphoxide such that their final concentration in the medium is between 10^-4 and 10^-8 M; the control wells receive 20 μl of solvent.
From the results obtained for several concentrations of each of the test products, the concentration at which the latter produce a 50% inhibition of cell proliferation is calculated in a conventional manner.

[3] = tested on: angiogenic response induced by fibrin gels; conditions: rat, treatment begun after 14 days
Method: as §1, §2, §3, §4, §5

[4] = Bos taurus, Endothelial cell, 120 h

COC(=O)C(c1ccccc1Cl)N1CCc2sccc2C1 (single isomer, unassigned) [Compound 4, laevorotatory isomer of methyl alpha-(4,5,6,7-tetrahydrothieno[3,2-c]pyrid-5-yl)-alpha-(2-chlorophenyl)acetate]
effectiveness on height of granulation outgrowths ([1]; 5 mg/kg/day oral): in contrast to the latter compound | inhibition of height of the granulation outgrowths ([1]; 25 mg/kg/day oral): 30% | lowering of number of newly-formed vessels per outgrowth ([1]; 25 mg/kg/day oral): 60% | platelet aggregation inhibition (platelet aggregation): inactive | IC50 [2]: 3.7 nM

CCOC(=O)C(c1ccccc1Cl)N1CCc2sccc2C1 (centres unmarked) [Compound 5]
IC50 [2, 4]: 70 nM

COC(=O)C(c1ccccc1Cl)N1CCc2sccc2C1 (centres unmarked) [Compound 2]
IC50 [2, 4]: 2.3 nM

COC(=O)C(c1ccccc1Cl)N1CCc2sccc2C1 (single isomer, unassigned) [Compound 3]
angiogenesis-inhibiting activity ([1]; 5 mg/kg/day oral): still very active | effectiveness on height of granulation outgrowths ([1]; 5 mg/kg/day oral): remains effective | inhibition of height of the granulation outgrowths ([1]; 5 mg/kg/day oral): 50% | lowering of number of newly-formed vessels per outgrowth ([1]; 5 mg/kg/day oral): 50% | angiogenesis-inhibiting activity (comparison with compound No. 4) ([1]; 25 mg/kg/day oral): markedly more active than its homologue, the compound No. 4 | inhibition of height of the granulation outgrowths ([1]; 25 mg/kg/day oral): 50% | lowering of number of newly-formed vessels per outgrowth ([1]; 25 mg/kg/day oral): 90% | quality of the granulation tissue ([1]; oral, dose not given): more loose-textured and disorganised | IC50 [2]: 0.8 nM | activity on regression of angiogenesis ([3]; 5 mg/kg/day): still very active | activity on regression of angiogenesis (comparison with compound No. 4) ([3]; 25 mg/kg/day): markedly more active than its homologue, the compound No. 4

O=C(O)C(c1ccccc1Cl)N1CCc2sccc2C1 (single isomer, unassigned) [Compound 1]
IC50 [2, 4]: 600 nM

CCCCOC(=O)C(c1ccccc1Cl)N1CCc2sccc2C1 (centres unmarked) [Compound 6]
IC50 [2, 4]: 220 nM
